Among the data in patent publication US7838674B2, “Tetracyclic lactame derivatives” (Novartis AG, priority 2007, dated 2010) are IC50 values, retold here.

As a reminder, the IC50 is the concentration needed to halve the response being measured.

The assay addresses T1, MAPKAPK2 enzyme (HIS-MK2, Invitrogen PV4019) (Homo sapiens, UniProt P49137).
T1 construct: His; purchased Invitrogen PV4019
Nature of the assay: Alternative MAPKAPK2 assay (Caliper microfluidic mobility shift, HSP27-peptide). Format: biochemical. Particulars: HIS-MK2 0.013 nM, ATP 10 μM, 60 min at 30° C.

Counter-ions that a name gives are not always drawn.

T1 sequence (P49137 whole entry): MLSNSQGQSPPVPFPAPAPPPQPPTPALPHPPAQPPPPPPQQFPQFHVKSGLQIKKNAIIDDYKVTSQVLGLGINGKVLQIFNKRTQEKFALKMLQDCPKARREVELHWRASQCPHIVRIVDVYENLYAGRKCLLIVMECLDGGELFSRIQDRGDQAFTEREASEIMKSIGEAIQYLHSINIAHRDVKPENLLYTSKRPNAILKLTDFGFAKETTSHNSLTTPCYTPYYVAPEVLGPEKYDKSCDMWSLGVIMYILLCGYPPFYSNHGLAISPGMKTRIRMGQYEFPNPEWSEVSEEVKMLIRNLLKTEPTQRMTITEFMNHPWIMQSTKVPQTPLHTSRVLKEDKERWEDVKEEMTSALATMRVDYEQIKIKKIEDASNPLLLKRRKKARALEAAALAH

In the case of `CC(C)(N)CCc1ccc(-c2cc3c(cn2)CCc2c-3[nH]c3c2C(=O)NC2(CC2)C3)cc1` [Example 78, 2-(1-Amino-cyclopropylmethyl)-8-[4-(3-amino-3-methyl-butyl)-phenyl]-4,5-dihydro-1H-pyrrolo[2,3-f]isoquinoline-3-carboxylic acid lactam], the IC50 is 0.018 µM.
The result for `O=C1NC2(CC2)Cc2[nH]c3c(c21)CCc1cnc(-c2ccc(CCCN4CC(O)C4)cc2)cc1-3` [Example 248, 2-(1-Amino-cyclopropylmethyl)-8-{4-[3-(3-hydroxy-azetidin-1-yl)-propyl]-phenyl}-4,5-dihydro-1H-pyrrolo[2,3-f]isoquinoline-3-carboxylic acid lactam] reads 0.08 µM; that for `O=C1NC2(CC2)C2(CC2)c2[nH]c3c(c21)CCc1cnc(-c2ccc(OCCN4CCOCC4)cc2)cc1-3` [Example 230, 2-(1′-Amino-bicyclopropyl-1-yl)-8-[4-(2-morpholin-4-yl-ethoxy)-phenyl]-4,5-dihydro-1H-pyrrolo[2,3-f]isoquinoline-3-carboxylic acid lactam], 0.036 µM.
In the case of `CC(C)Oc1ccc(-c2cc3c(cn2)CCc2c4c(n(C)c2-3)C2(CNC4=O)CN(C)C2)cn1` [Example 183, 2-(3-Aminomethyl-1-methyl-azetidin-3-yl)-8-(6-isopropoxy-pyridin-3-yl)-1-methyl-4,5-dihydro-1H-pyrrolo[2,3-f]isoquinoline-3-carboxylic acid lactam], the IC50 came out at 0.009 µM.
As to `COc1ccc(-c2cc3c(cn2)CCc2c-3oc3c2C(=O)NC2(CNC2)C3)cc1` [Example 41, 2-(3-Amino-azetidin-3-ylmethyl)-8-(4-methoxy-phenyl)-4,5-dihydro-furo[2,3-f]isoquinoline-3-carboxylic acid lactam hydrochloride], the IC50 amounted to 0.021 µM.
The result for `CN1CC2(CNC(=O)c3c4c(n(C)c32)-c2nc(-c3cccc(F)c3)ncc2CC4)C1` [Example 204, 2-(3-Aminomethyl-1-methyl-azetidin-3-yl)-8-(3-fluoro-phenyl)-1-methyl-4,5-dihydro-1H-1,7,9-triaza-cyclopenta[a]naphthalene-3-carboxylic acid lactam] reads 0.022 µM; that for `CN(C)c1ccc(-c2cc3c(cn2)CCc2c4c(n(C)c2-3)CC2(CNC2)NC4=O)cn1` [Example 147, 2-(3-Amino-azetidin-3-ylmethyl)-8-(6-dimethylamino-pyridin-3-yl)-1-methyl-4,5-dihydro-1H-pyrrolo[2,3-f]isoquinoline-3-carboxylic acid lactam hydrochloride], 0.089 µM.
`Cn1c2c(c3c1-c1cc(-c4ccc5c(c4)OCCO5)ncc1CC3)C(=O)NC1(CNC1)C2` [Example 148, 2-(3-Amino-azetidin-3-ylmethyl)-8-(2,3-dihydro-benzo[1,4]dioxin-6-yl)-1-methyl-4,5-dihydro-1H-pyrrolo[2,3-f]isoquinoline-3-carboxylic acid lactam hydrochloride]: the IC50 was determined as 0.015 µM.
For the compound `O=C1NCC2(CNC2)c2[nH]c3c(c21)CCc1cnc(-c2ccc(Oc4ccc(F)cc4F)nc2)cc1-3` [Example 154, 2-(3-Aminomethyl-azetidin-3-yl)-8-[6-(2,4-difluoro-phenoxy)-pyridin-3-yl]-4,5-dihydro-1H-pyrrolo[2,3-f]isoquinoline-3-carboxylic acid lactam], the IC50 was < 0.003 µM.
With `CC(C)Oc1ccc(-c2cc3c(cn2)CCc2c4c(n(C)c2-3)C2(CNC2)CNC4=O)cn1` [Example 184, 2-(3-Aminomethyl-azetidin-3-yl)-8-(6-isopropoxy-pyridin-3-yl)-1-methyl-4,5-dihydro-1H-pyrrolo[2,3-f]isoquinoline-3-carboxylic acid lactam hydrochloride], the IC50 came to 0.009 µM.
The same measure for `CN1CC2(C1)c1[nH]c3c(c1C(=O)NC21CC1)CCc1cnc(-c2ccc(OCCN4CCOCC4)cc2)cc1-3` [Example 259, 2-[3-(1-Amino-cyclopropyl)-1-methyl-azetidin-3-yl]-8-[4-(2-morpholin-4-yl-ethoxy)-phenyl]-4,5-dihydro-1H-pyrrolo[2,3-f]isoquinoline-3-carboxylic acid lactam]: < 0.003 µM.
The same measure for `O=C1NC2(CNC2)Cc2[nH]c3c(c21)CCc1cnc(-c2cccc(Br)c2)nc1-3` [Example 285, 2-(3-Amino-azetidin-3-ylmethyl)-8-(3-bromo-phenyl)-4,5-dihydro-1H-1,7,9-triaza-cyclopenta[a]naphthalene-3-carboxylic acid lactam hydrochloride]: 0.007 µM.
The result for `Cn1c2c(c3c1C1(CNC1)CNC3=O)CCc1cnc(-c3cccc(Cl)c3)cc1-2` [Example 189, 2-[3-Aminomethyl-azetidin-3-yl]-8-(3-chloro-phenyl)-1-methyl-4,5-dihydro-1H-pyrrolo[2,3-f]isoquinoline-3-carboxylic acid lactam hydrochloride] reads 0.006 µM; that for `CC(C)(O)CCc1ccc(-c2cc3c(cn2)CCc2c-3[nH]c3c2C(=O)NC2(CC2)C3)cc1` [Example 77, 2-(1-Amino-cyclopropylmethyl)-8-[4-(3-hydroxy-3-methyl-butyl)-phenyl]-4,5-dihydro-1H-pyrrolo[2,3-f]isoquinoline-3-carboxylic acid lactam], 0.085 µM; that for `COc1ccc(-c2ncc3c(n2)-c2[nH]c4c(c2CC3)C(=O)NCC42CNC2)cc1` [Example 206, 2-(3-Aminomethyl-azetidin-3-yl)-8-(4-methoxy-phenyl)-4,5-dihydro-1H-1,7,9-triaza-cyclopenta[a]naphthalene-3-carboxylic acid lactam hydrochloride], < 0.003 µM.
With `COc1cncc(-c2cc3c(cn2)CCc2c4c(n(C)c2-3)CC2(CNC2)NC4=O)c1` [Example 140, 2-(3-Amino-azetidin-3-ylmethyl)-8-(5-methoxy-pyridin-3-yl)-1-methyl-4,5-dihydro-1H-pyrrolo[2,3-f]isoquinoline-3-carboxylic acid lactam hydrochloride], the half-inhibitory concentration (IC50) was found to be 0.012 µM.
The same measure for `CN1CC2(C1)c1[nH]c3c(c1C(=O)NC21CC1)CCc1cnc(-c2cccc(F)c2)cc1-3` [Example 208, 2-[3-(1-Amino-cyclopropyl)-1-methyl-azetidin-3-yl]-8-(3-fluoro-phenyl)-4,5-dihydro-1H-pyrrolo[2,3-f]isoquinoline-3-carboxylic acid lactam]: < 0.003 µM.
As for `O=C(NCc1ccccc1)c1cncc(-c2ncc3c(n2)-c2[nH]c4c(c2CC3)C(=O)NCC42CC2)c1` [Example 290, N-Benzyl-5-(10-spirocyclopropyl-7-oxo-6,7,8,9,10,11-hexahydro-5H-1,3,8,11-tetraaza-benzo[a]fluoren-2-yl)-nicotinamide], the concentration for half-maximal inhibition (IC50) was found to be 0.086 µM.
With `COc1ccc(-c2cc3c(cn2)CCc2c-3[nH]c3c2C(=O)NC2(CC2)C32CN(C)C2)cc1` [Example 225, 2-[3-(1-Amino-cyclopropyl)-1-methyl-azetidin-3-yl]-8-(4-methoxyphenyl)-4,5-dihydro-1H-pyrrolo[2,3-f]isoquinoline-3-carboxylic acid lactam], the IC50 is < 0.003 µM.
The result for `Cn1c2c(c3c1-c1cc(-c4ccncc4)ncc1CC3)C(=O)NC1(CNC1)C2` [Example 152, 2-(3-Amino-azetidin-3-ylmethyl)-8-(pyridin-4-yl)-1-methyl-4,5-dihydro-1H-pyrrolo[2,3-f]isoquinoline-3-carboxylic acid lactam hydrochloride] reads 0.015 µM; that for `O=C1NCC2(CC2)c2[nH]c3c(c21)CCc1cnc(-c2ccc4c(c2)OCCO4)cc1-3` [Example 114], 0.041 µM.
The result for `O=C1NC2(CC2)Cc2[nH]c3c(c21)CCc1cnc(Oc2ccc(F)cc2F)nc1-3` [Example 266, 2-(1-Amino-cyclopropylmethyl)-8-(2,4-difluoro-phenoxy)-4,5-dihydro-1H-1,7,9-triaza-cyclopenta[a]naphthalene-3-carboxylic acid lactam] reads > 0.01 µM; that for `CC(C)(N)CCc1ccc(-c2cc3c(cn2)CCc2c-3[nH]c3c2C(=O)NCC32CC2)cc1` [Example 118, 8-[4-(3-Amino-3-methyl-butyl)-phenyl]-2-(1-aminomethyl-cyclopropyl)-4,5-dihydro-1H-pyrrolo[2,3-f]isoquinoline-3-carboxylic acid lactam], 0.016 µM.
The same measure for `Cn1c2c(c3c1-c1cc(-c4cccc(F)c4)ncc1CC3)C(=O)NC1(CNC1)C2` [Example 133, 2-(3-Amino-azetidin-3-ylmethyl)-8-(3-fluoro-phenyl)-1-methyl-4,5-dihydro-1H-pyrrolo[2,3-f]isoquinoline-3-carboxylic acid lactam hydrochloride]: 0.018 µM; for `O=C1NC2(CC2)Cc2[nH]c3c(c21)CCc1cnc(-c2ccc4c(c2)OCCO4)cc1-3` [Example 66, 2-(1-Amino-cyclopropylmethyl)-8-(2,3-dihydro-benzo[1,4]dioxin-6-yl)-4,5-dihydro-1H-pyrrolo[2,3-f]isoquinoline-3-carboxylic acid lactam]: 0.06 µM.
For `COc1cncc(-c2cc3c(cn2)CCc2c-3[nH]c3c2C(=O)NCC32CC2)c1` [Example 55, 2-(1-Aminomethyl-cyclopropyl)-8-(5-methoxy-pyridin-3-yl)-4,5-dihydro-1H-pyrrolo[2,3-f]isoquinoline-3-carboxylic acid lactam], the IC50 was 0.011 µM.
The result for `CN1CCN(c2ccc(-c3cc4c(cn3)CCc3c-4[nH]c4c3C(=O)NC3(CC3)C4)cc2C#N)CC1` [Example 321, 2-(4-Methyl-piperazin-1-yl)-9-spirocyclopropyl-5-(7-oxo-6,7,8,9,10,11-hexahydro-5H-3,8,11-triaza-benzo[a]fluoren-2-yl)-benzonitrile] reads 0.009 µM.
The result for `O=C1NC2(CC2)Cc2[nH]c3c(c21)CCc1cnc(-c2ccc(N4CCOCC4)nc2)cc1-3` [Example 236, 2-(1-Amino-cyclopropylmethyl)-8-(6-morpholin-4-yl-pyridin-3-yl)-4,5-dihydro-1H-pyrrolo[2,3-f]isoquinoline-3-carboxylic acid lactam] reads 0.022 µM.
